Measured values from patent US20240166687A1, “REGULATORY T CELL-INDUCING PEPTIDE AND COMPOSITION INCLUDING SAME FOR PREVENTING OR TREATING AUTOIMMUNE DISEASE” (IUCF-HYU (INDUSTRY-UNIVERSITY COOPERATION FOUNDATION …, priority 2021, published 2024).
“Also recorded” adds a separate entry of the source.

B1: KIKKVKKKGRKGSKIKKVKKKGRKGGAMLAAASPLTTGVYVKMPPTEPECEKQFQPYFIPIN (peptide)
chain: KIKKVKKKGRKGSKIKKVKKKGRKGGAMLAAASPLTTGVYVKMPPTEPECEKQFQPYFIPIN
notes: dNP2-ctCTLA-4 variant, K motif residues replaced with alanine

What was measured:
[1] = system: multiple sclerosis animal model; assay: Analysis of efficiency in multiple sclerosis (MS) animal model (MOG35-55/CFA + PTX); type: in vivo, C57BL/6 mice; details: for clinical symptoms (clinical score): 100 μg (5 mg/kg) intraperitoneally once a day from day 7 after PTX; for clinical symptoms (clinical score) / number of Treg cells (spinal cord) / number of infiltrated lymphocytes in the spinal cord: comparator as named in the value
Procedure: 8-week-old female C57BL/6 mice were purchased from Orient Bio (Daejeon, Korea). All animal experiments were conducted in compliance with the animal experiment operation regulations of the Institutional Animal Care and Use Committee of Hanyang University. The mice were acclimatized for 2 weeks before the experiment. The mice were raised in a breeding room maintained at temperature 22±2° C. and 40-60% humidity with free access to feed. The light and dark cycles were adjusted at 12-hour intervals. Multiple sclerosis was induced by subcutaneous immunization using a MOG35-55/CFA emulsion PTX kit (Hooke Labs, Lawrence, MA, USA) according to the manufacturer's protocol. The mice were anesthetized with isoflurane and MOG35-55/CFA was subcutaneously injected bilaterally, followed by intraperitoneal injection of PTX (pertussis toxin) 2 hours and 24 hours later. The mice were randomly assigned to different groups after MOG immunization. Because paralysis due to immune response begins on day 7 after the injection of PTX, 100 μg (5 mg/kg) of the samples according to the present disclosure were intraperitoneally injected to the groups once a day from day 7. Each group was monitored every day after inducing multiple sclerosis and clinical symptoms were recorded. The clinical symptoms were evaluated based on the scoring system described in Table 2. The higher clinical scores indicate severer symptoms. The mice were euthanized at the end of the experiments and lymphocytes were isolated from the spinal cords. The isolated spinal cords were treated at 37° C. with 1 mg/mL of DNase 1 (10104159001; Sigma-Aldrich) and 1 mg/mL of collagenase D (11088866001; Sigma-Aldrich) and incubated at 80 rpm on a shaker for 40 minutes. After the enzyme treatment, 500 mM EDTA was added and lymphocytes were isolated by Percoll (GE Healthcare, Little Chalfont, UK) density-gradient centrifugation. The isolated infiltrated lymphocytes were restimulated with a cell stimulation cocktail (plus protein transport inhibitors) (ThermoFisher) at 37° C. for 4 hours and stained with anti-mouse CD4. The cells were fixed, permeabilized using a Foxp3/transcription factor staining buffer set (eBioscience) and stained with anti-mouse IFN-γ, anti-mouse IL-17 or anti-mouse Foxp3. The cells were analyzed using a FACS Canto flow cytometer and the FlowJo software version 10.7.1. For histological analysis, paraffin blocks of the spinal cord tissues were deparaffinized and treated with luxol fast blue. For combination staining, hematoxylin and eosin were used (Dako). The cells infiltrated in the white matter region of the spinal cord tissues were counted using the Image J software version 2.0.0. The increased number of Th1 and Th17 immune cells in the spinal cord means more severe multiple sclerosis, and the increased number of Treg cells means that the function of preventing or treating autoimmune disease such as multiple sclerosis is improved as the tolerance to self-antigens is maintained and the excessive response by the immune system is prevented.

[2] = system: Th17 cells differentiated from splenocytes isolated from mouse; assay: Analysis of effect under Th17 differentiation conditions (flow cytometry of IL-17A and Foxp3); type: cell-based; details: sample 2 μM; for effect of suppressing immune response (decrease of IL-17 and increase of Foxp3): flow cytometry 4 days later, comparator as named in the value (Th17/PBS control, K1, AP-K2)
Excerpt: Th17 cells are a subset of CD4 T cells. The Th17 cells are known to secrete a cytokine known as IL-17 and cause inflammation. This is the major cause of autoimmune disease. And, Treg cells (regulatory T cells) are known to suppress and regulate inflammation by expressing the transcription factor called Foxp3. Accordingly, since it is thought that the effect of preventing and treating autoimmune disease may be achieved by regulating inflammation by inhibiting Th17 cells (IL-17) and increasing Treg (Foxp3) cells, the effect of the peptides of the present disclosure was investigated.
Undifferentiated CD4 T cells (naive CD4 T cells) were isolated from splenocytes of 6- to 8-week-old C57BL/6 mice using a mouse undifferentiated CD4+ T cell (naive CD4 T cell) isolation kit (Miltenyi Biotec, Auburn, CA, USA) according to the manufacturer's protocols. For RNAseq, the undifferentiated CD4 T cells (naive CD4 T cells) from the Foxp3-GFP mice were purified, differentiated into Th17 cells and sorted into Foxp3^+ and Foxp3^− populations using a cell sorter (FACS Aria cell sorter BD Biosciences, Franklin Lakes, NJ, USA). The purified undifferentiated CD4 T cells (naive CD4 T cells) were activated with plate-bound anti-CD3 (2 or 5 μg/mL, 553057; BD Pharmingen, La Jolla, CA) and anti-CD28 (2 or 5 μg/mL, 553294; BD Pharmingen, La Jolla, CA) antibodies and differentiated by treating with the following cytokine cocktails in a 96-well plate for 3 or 4 days: Th0; recombinant human TGF-β(R&D Systems) 0.25 ng/mL. Th1; anti-IL-4 (11B11; 16-7041-85; eBioscience) 5 μg/mL, IL-2 (212-12; Peprotech, Rocky Hill, NJ) 50 U/mL, recombinant murine IL-12 (212-12; Peprotech) 2 ng/mL, recombinant human TGF-β (R&D Systems) for Th1 0.25 ng/mL. Th17; anti-IFN-γ (XMG1.2; 16-7311-85; eBioscience) 5 μg/mL, anti-IL-4 (11B11; 16-7041-85; eBioscience) 5 μg/mL, recombinant murine TGF-β (7666-MB, R&D Systems, Minneapolis, MN) 2 ng/mL, IL-6 (216-16; Peprotech) 30 ng/mL, IL-23 (1887-ML-101; R&D Systems) 20 ng/mL, IL-1β (401-ML-010; R&D Systems) 20 ng/mL, and IL-2 (Peprotech) 50 U/mL. Treg; IL-2 (Peprotech) 50 U/mL and TGF-β (R&D Systems) 0.5 ng/mL.
The cells were cotreated with the cytokine cocktails and the samples (2 μM). 4 days later, they were analyzed by flow cytometry using IL-17 and Foxp3 fluorescent antibodies. In some experiments, 5 μM PKC-η pseudosubstrate inhibitor (sc-3096; Santa Cruz) or 5 μM ERK inhibitor (UO126, 662005; Sigma) were also added.
For flow cytometric analysis of living cells only, dead cells were excluded using the Zombie Aqua™ fixable viability kit (Biolegend) before staining with antibodies at room temperature for 10 minutes. After washing, surface proteins of the differentiated Th1, Th17 and Treg cells were stained with monoclonal antibodies at 4° C. for 15 minutes. To determine intracellular cytokine levels, the cells were restimulated with a cell stimulation cocktail (plus protein transport inhibitors) (ThermoFisher) at 37° C. for 4 hours and then stained with surface marker antibodies. The cells were then fixed, permeabilized using a Foxp3/transcription factor staining buffer set (eBioscience) and stained with anti-mouse IFN-γ, anti-mouse IL-17 and anti-mouse Foxp3. The cells were analyzed using a FACS Canto II flow cytometer and the FlowJo software version 10.7.

[3] = 100 μg intraperitoneally once a day from day 7

| Molecule | clinical symptoms (clinical score) [1] | number of Treg cells (spinal cord) [1, 3] | number of infiltrated lymphocytes in the spinal cord [1, 3] | effect of suppressing immune response (decrease of IL-17 and increase of Foxp3) [2] | effect in the multiple sclerosis animal model (overall) ([1]; 100 μg intraperitoneally once a day from day 7 to day 18) | number of regulatory T cells (Treg) compared to dNP2-ctCTLA-4 [1, 3] | number of infiltrated lymphocytes in the spinal cord, ranking among the groups ([1]; 100 μg intraperitoneally once a day from day 7 to day 13, groups K2, AP-K2, Myr-K2, Myr-K3) | expression of IL-17 T cells, IFN-γ T cells and Foxp3 T cells compared to PBS ([1]; 100 μg intraperitoneally once a day from day 7 to day 13, spinal cord lymphocytes) | effect of inhibiting the IL-17 cytokine compared to the dNP2-ctCTLA-4 group ([2]; 4 days) | reduction of IL-17 as compared to the control group ([2]; 4 days, CD4+IL-17A+ T cells) | increase of Foxp3 as compared to the control group ([2]; 4 days, CD4+foxp3+ T cells) [times] | function of inhibiting myelin damage (histological analysis of the spinal cord) ([1]; 100 μg intraperitoneally once a day from day 7 to day 14, luxol fast blue, H&E) |
| --- | --- | --- | --- | --- | --- | --- | --- | --- | --- | --- | --- | --- |
| KMLKKRSGGGGSKMLKKRS (K2(G4S)) [K2 (G4S)] | significantly remarkable superior result in clinical symptoms than the K1 group | larger number of Treg cells than the K1 group | significantly number of infiltrated lymphocytes in the spinal cord as compared to the K1 group | the activity of inhibiting immune cells is significantly superior |  |  |  |  |  |  |  |  |
| KMLKKRS (K1) [Example K1, single K motif of CTLA4 without CPP, fatty acid or linker] |  |  |  | did not show significant difference from Th17 (control group) | does not show significant effect on its own in the multiple sclerosis animal model |  |  |  |  |  |  |  |
| RRRWCKRRRGGKMLKKRSKMLKKRS (AP-K2) | significantly improved results for clinical symptoms as compared to the PBS (control group); also recorded: significantly improved result for clinical symptoms as compared to the PBS group | significantly number of regulatory T cells (Treg) as compared to the PBS (control group) | significantly smaller number of infiltrated lymphocytes in the spinal cord as compared to the PBS (control group), dNP2 and AP groups; also recorded: significantly smaller number of infiltrated lymphocytes in the spinal cord than the PBS (control group) | significantly better effect of suppressing immune response than the PBS (control group) |  | an increase comparable to that of dNP2-ctCTLA-4 | most superior effects | inhibited expression of II-17 T cells and IFN-γ T cells and increase of Foxp3 T cells as compared to the PBS (control group) | remarkably superior effect of inhibiting the IL-17 cytokine as compared to the dNP2-ctCTLA-4 group | reduced IL-17 to half or less | ≥ 5 |  |
| KIKKVKKKGRKGSKIKKVKKKGRKKMLKKRS (dNP2-K1) [deleted variant of dNP2-ctCTLA-4 with only the K motif] |  |  | significantly smaller number of infiltrated lymphocytes in the spinal cord as compared to the TAT-ctCTLA-4 group and the PBS group | exhibited the activity of inhibiting immune response |  |  |  |  |  |  |  |  |
| B1 | significantly lower clinical symptoms as compared to the PBS group | smallest number of Treg cells | significantly larger number of infiltrated lymphocytes in the spinal cord as compared to the PBS group | the function of the decrease of IL-17 and the increase of Foxp3 was lost |  |  |  |  |  |  |  | the function of inhibiting myelin damage was lost |
